Experimental data published in PubChem BioAssay (NCI).
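How tested: cells in 96-well plates exposed to compound for 48 hours at five concentrations. TGI is the concentration that stops growth completely.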 Calls of active or inactive are those of the source. Cut-off read from the data, not from the text of the source: active = GI50 below about 0.43 µM; inactive = the rest.

Tests used:
Assay in all cases: growth of human tumour cells (NCI), 48 h
M14 melanoma = test system: M14 melanoma
IGROV1 ovarian = test system: IGROV1 ovarian
MDA-MB-435 = test system: MDA-MB-435
PC-3 prostate = test system: PC-3 prostate
OVCAR-4 ovarian = test system: OVCAR-4 ovarian
SK-MEL-5 melanoma = test system: SK-MEL-5 melanoma
SF-268 CNS = test system: SF-268 CNS
SK-MEL-28 melanoma = test system: SK-MEL-28 melanoma
LOX IMVI melanoma = test system: LOX IMVI melanoma
HCT-116 colon = test system: HCT-116 colon
NCI-H460 lung = test system: NCI-H460 lung
HCT-15 colon = test system: HCT-15 colon
OVCAR-5 ovarian = test system: OVCAR-5 ovarian
BT-549 breast = test system: BT-549 breast
COLO 205 colon = test system: COLO 205 colon
U251 CNS = test system: U251 CNS
SK-MEL-2 melanoma = test system: SK-MEL-2 melanoma
DU-145 prostate = test system: DU-145 prostate
HS 578T breast = test system: HS 578T breast
NCI-H23 lung = test system: NCI-H23 lung
CCRF-CEM leukemia = test system: CCRF-CEM leukemia
T-47D breast = test system: T-47D breast
HT29 colon = test system: HT29 colon
HCC-2998 colon = test system: HCC-2998 colon
MCF7 breast = test system: MCF7 breast
SF-295 CNS = test system: SF-295 CNS
MOLT-4 leukemia = test system: MOLT-4 leukemia
SNB-75 CNS = test system: SNB-75 CNS
CAKI-1 renal = test system: CAKI-1 renal
HL-60(TB) leukemia = test system: HL-60(TB) leukemia
SK-OV-3 ovarian = test system: SK-OV-3 ovarian
SF-539 CNS = test system: SF-539 CNS
NCI/ADR-RES ovarian = test system: NCI/ADR-RES ovarian
MALME-3M melanoma = test system: MALME-3M melanoma
MDA-MB-231 breast = test system: MDA-MB-231 breast
SNB-19 CNS = test system: SNB-19 CNS
OVCAR-3 ovarian = test system: OVCAR-3 ovarian
UACC-62 melanoma = test system: UACC-62 melanoma
A549 NSCLC = test system: A549 NSCLC
EKVX NSCLC = test system: EKVX NSCLC
K-562 leukemia = test system: K-562 leukemia
A498 renal = test system: A498 renal
HOP-62 NSCLC = test system: HOP-62 NSCLC
SN12C renal = test system: SN12C renal
SR leukemia = test system: SR leukemia
TK-10 renal = test system: TK-10 renal
RXF 393 renal = test system: RXF 393 renal
SW-620 colon = test system: SW-620 colon
HOP-92 NSCLC = test system: HOP-92 NSCLC
OVCAR-8 ovarian = test system: OVCAR-8 ovarian
UACC-257 melanoma = test system: UACC-257 melanoma
UO-31 renal = test system: UO-31 renal
NCI-H522 lung = test system: NCI-H522 lung
ACHN renal = test system: ACHN renal
786-0 renal = test system: 786-0 renal
NCI-H226 lung = test system: NCI-H226 lung
RPMI-8226 leukemia = test system: RPMI-8226 leukemia
KM12 colon = test system: KM12 colon

## O=c1cc(-c2cc(O)c(O)c(-c3c(O)cc(O)c4c(=O)cc(-c5ccc(O)c(O)c5)oc34)c2)oc2cc(O)cc(O)c12
M14 melanoma
  outcome: inactive
IGROV1 ovarian
  outcome: inactive
MDA-MB-435
  outcome: inactive
PC-3 prostate
  outcome: inactive
OVCAR-4 ovarian
  outcome: inactive
SK-MEL-5 melanoma
  outcome: inactive
SF-268 CNS
  outcome: inactive
SK-MEL-28 melanoma
  outcome: inactive
LOX IMVI melanoma
  outcome: inactive
HCT-116 colon
  outcome: inactive
NCI-H460 lung
  outcome: inactive
HCT-15 colon
  outcome: inactive
OVCAR-5 ovarian
  outcome: inactive
BT-549 breast
  outcome: inactive
COLO 205 colon
  outcome: inactive
U251 CNS
  outcome: inactive
SK-MEL-2 melanoma
  outcome: inactive
DU-145 prostate
  outcome: inactive
HS 578T breast
  outcome: inactive
NCI-H23 lung
  outcome: inactive
CCRF-CEM leukemia
  outcome: inactive
T-47D breast
  outcome: inactive
HT29 colon
  outcome: inactive
HCC-2998 colon
  outcome: inactive
MCF7 breast
  outcome: inactive
SF-295 CNS
  outcome: inactive
MOLT-4 leukemia
  outcome: inactive
SNB-75 CNS
  outcome: inactive
CAKI-1 renal
  outcome: inactive
HL-60(TB) leukemia
  outcome: inactive
SK-OV-3 ovarian
  outcome: inactive
SF-539 CNS
  outcome: inactive
NCI/ADR-RES ovarian
  outcome: inactive
MALME-3M melanoma
  outcome: inactive
MDA-MB-231 breast
  outcome: inactive
SNB-19 CNS
  outcome: inactive
OVCAR-3 ovarian
  outcome: inactive
UACC-62 melanoma
  outcome: inactive
A549 NSCLC
  outcome: inactive
EKVX NSCLC
  outcome: inactive
K-562 leukemia
  outcome: inactive
A498 renal
  outcome: inactive
HOP-62 NSCLC
  outcome: inactive
SN12C renal
  outcome: inactive
SR leukemia
  outcome: inactive
TK-10 renal
  outcome: inactive
RXF 393 renal
  outcome: inactive
SW-620 colon
  outcome: inactive
HOP-92 NSCLC
  outcome: inactive
OVCAR-8 ovarian
  outcome: inactive
UACC-257 melanoma
  outcome: inactive
UO-31 renal
  outcome: inactive

## COC(=O)CN(CC1O[C@@H]2OC(C)(C)O[C@@H]2C1N=[N+]=[N-])C(=O)OCc1ccccc1 (stereo partly specified)
M14 melanoma
  TGI: > 100 µM
IGROV1 ovarian
  TGI: > 100 µM
MDA-MB-435
  TGI: > 100 µM
PC-3 prostate
  TGI: > 100 µM
OVCAR-4 ovarian
  TGI: > 100 µM
SK-MEL-5 melanoma
  TGI: > 100 µM
SF-268 CNS
  TGI: > 100 µM
SK-MEL-28 melanoma
  TGI: > 100 µM
LOX IMVI melanoma
  TGI: > 100 µM
HCT-116 colon
  TGI: > 100 µM
NCI-H460 lung
  TGI: > 100 µM
HCT-15 colon
  TGI: > 100 µM
OVCAR-5 ovarian
  TGI: > 100 µM
NCI-H522 lung
  TGI: > 100 µM
BT-549 breast
  TGI: > 100 µM
COLO 205 colon
  TGI: > 100 µM
U251 CNS
  TGI: > 100 µM
SK-MEL-2 melanoma
  TGI: > 100 µM
DU-145 prostate
  TGI: > 100 µM
HS 578T breast
  TGI: > 100 µM
T-47D breast
  TGI: > 100 µM
ACHN renal
  TGI: > 100 µM
HT29 colon
  TGI: > 100 µM
HCC-2998 colon
  TGI: > 100 µM
MCF7 breast
  TGI: > 100 µM
SF-295 CNS
  TGI: > 100 µM
MOLT-4 leukemia
  TGI: > 100 µM
SNB-75 CNS
  TGI: > 100 µM
CAKI-1 renal
  TGI: > 100 µM
HL-60(TB) leukemia
  TGI: > 100 µM
SK-OV-3 ovarian
  TGI: > 100 µM
786-0 renal
  TGI: > 100 µM
SF-539 CNS
  TGI: > 100 µM
NCI-H226 lung
  TGI: > 100 µM
NCI/ADR-RES ovarian
  TGI: > 100 µM
MDA-MB-231 breast
  TGI: > 100 µM
SNB-19 CNS
  TGI: > 100 µM
OVCAR-3 ovarian
  TGI: > 100 µM
UACC-62 melanoma
  TGI: > 100 µM
A549 NSCLC
  TGI: > 100 µM
RPMI-8226 leukemia
  TGI: > 100 µM
EKVX NSCLC
  TGI: > 100 µM
K-562 leukemia
  TGI: > 100 µM
A498 renal
  TGI: > 100 µM
HOP-62 NSCLC
  TGI: > 100 µM
SN12C renal
  TGI: > 100 µM
SR leukemia
  TGI: > 100 µM
TK-10 renal
  TGI: > 100 µM
SW-620 colon
  TGI: > 100 µM
KM12 colon
  TGI: > 100 µM
HOP-92 NSCLC
  TGI: > 100 µM
OVCAR-8 ovarian
  TGI: > 100 µM
UACC-257 melanoma
  TGI: > 100 µM
UO-31 renal
  TGI: > 100 µM
